Values of other authors, collected in publication PMC10224173 (Viruses, 2023).

Target: ZIKV NS2B-NS3 protease (Zika virus, UniProt A0A024B7W1)
Conditions: Table 2; active site inhibitor; ref [43]

ZIKV NS2B-NS3 protease, sequence (A0A024B7W1 1503-1680): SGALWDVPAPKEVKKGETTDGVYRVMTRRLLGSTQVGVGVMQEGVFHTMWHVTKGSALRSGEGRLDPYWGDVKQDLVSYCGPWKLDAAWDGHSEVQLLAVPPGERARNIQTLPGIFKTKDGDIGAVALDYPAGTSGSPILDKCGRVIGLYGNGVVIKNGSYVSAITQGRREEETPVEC
ZIKV NS2B-NS3 protease, sequence (A0A024B7W1 1419-1472): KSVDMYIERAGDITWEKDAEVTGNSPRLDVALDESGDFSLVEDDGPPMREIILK

For `CC(C)C[C@H]1C(=O)N2CCC[C@H]2[C@]2(O)O[C@](NC(=O)[C@@H]3C=C4c5cccc6[nH]c(Br)c(c56)C[C@H]4N(C)C3)(C(C)C)C(=O)N12` [Bromocriptine], the IC50 is listed as 21.6 µM.
